The record followed here is patent US20090264289A1, “Use of Arylcarboxylic Acid Biphenylamides for Seed Treatment” (BASF SE, priority 2006, published 2009).

Assay type in all cases: in vivo
The subject of one assay is Puccinia recondita. Nature of the assay: Activity against Puccinia recondita on wheat (solution pipetted to seedlings in vermiculite). The following applies: inoculated 7 days after treatment, 7 days incubation, control 80. On the procedure:
(§1) Activity Against Puccinia recondita on Wheat The active compounds were formulated as a stock solution in acetone at a concentration of 10 000 ppm. The stock solution was diluted with water to the stated active compound concentration. 1 ml of the respective solution was pipetted to wheat seedlings grown in vermiculite (10 to 12 seedlings per pot). 7 days after the treatment the wheat plants were inoculated with a spore suspension of Puccinia recondita. After 7 days of incubation, the extent of infection was determined visually in %. The concentration is given in g of active compound (g a.i.) per 100 kg of seeds.

A further assay has as its system Erysiphe graminis. The experiment in a line: Activity against Erysiphe graminis on wheat (solution pipetted to seedlings in vermiculite). The following applies: inoculated 7 days after treatment, 7 days incubation, control 80. On the procedure: as §1, with “Erysiphe graminis” for “Puccinia recondita”, “Erysiphe graminis.” for “Puccinia recondita.”
The test system of the next assay is Septoria tritici. Nature of the assay: Activity against Septoria tritici on wheat (seedlings treated, detached leaf portions on agar inoculated). The settings on record: wheat seedlings in vermiculite, leaf portions on agar inoculated 7 days after treatment, 18° C., 18 days incubation, control 100. The method, then:
Activity Against Septoria tritici on Wheat The active compound Ia.1 was formulated as a stock solution in acetone at a concentration of 10 000 ppm. The stock solution was diluted with water to the stated active compound concentration. 1 ml of the respective solution was pipetted to wheat seedlings grown in vermiculite (10 to 12 seedlings per pot). 7 days after the treatment leaf portions of 5 cm length were placed in petri dishes filled with aqueous agar. The leaf portions were then inoculated with a spore suspension of Septoria tritici. The closed Petri dishes were incubated in a climatized test cabinet at 18° C. and 12 h light exposure per day. After 18 days of incubation, the extent of infection was determined visually in %. The concentration is given in g of active compound (g a.i.) per 100 kg of seeds.

`O=C(Nc1ccccc1-c1ccc(OC(F)(F)F)cc1)c1cccnc1Cl` [Id.55]: the Infected leaf area in the assay with Puccinia recondita (125 g a.i./100 kg) and in the assay with Puccinia recondita (250 g a.i./100 kg) was 0% in each case.
Regarding `Cn1cc(C(=O)Nc2ccccc2-c2cc(F)cc(Cl)c2)c(C(F)(F)F)n1` [Ia.251], the Infected leaf area with Puccinia recondita (125 g a.i./100 kg) and in the assay on Puccinia recondita (250 g a.i./100 kg) was 0% each time.
For `O=C(Nc1ccccc1-c1ccc(OC(F)(F)C(F)F)cc1)c1cccnc1Cl` [Id.56], the Infected leaf area in the assay on Puccinia recondita (125 g a.i./100 kg) and in the assay with Puccinia recondita (250 g a.i./100 kg) was 0% in each case.
Regarding `Cn1cc(C(=O)Nc2ccccc2-c2cc(F)cc(F)c2)c(C(F)F)n1` [Ia.244], the Infected leaf area in the assay on Puccinia recondita (125 g a.i./100 kg) and with Puccinia recondita (250 g a.i./100 kg) was 0% each time.
With `Cn1cc(C(=O)Nc2c(F)cccc2-c2ccc(F)c(Cl)c2)c(C(F)F)n1` [Ia.249], the Infected leaf area with Puccinia recondita (125 g a.i./100 kg) and in the assay on Puccinia recondita (250 g a.i./100 kg) was 0% throughout.
Consider `Cn1cc(C(=O)Nc2ccccc2-c2ccc(SC(F)(F)F)cc2)c(C(F)(F)F)n1` [Ia.173], for which the Infected leaf area in the assay on Puccinia recondita (125 g a.i./100 kg), in the assay with Puccinia recondita (250 g a.i./100 kg), in the assay with Erysiphe graminis (125 g a.i./100 kg) and with Erysiphe graminis (250 g a.i./100 kg) was 0% throughout.
In the case of `Cc1nn(C)c(Cl)c1C(=O)Nc1ccccc1-c1ccc(C(F)(F)F)cc1` [Ia.219], the Infected leaf area was 8% in the assay with Puccinia recondita (125 g a.i./100 kg) and 6% in the assay on Puccinia recondita (250 g a.i./100 kg).
In the same order, the values of `Cn1cc(C(=O)Nc2ccccc2-c2cc(F)cc(Cl)c2)c(C(F)F)n1` [Ia.250] are 0% and 0%.
In the same order, the values of `Cn1cc(C(=O)Nc2ccccc2-c2cccc(C(F)(F)F)c2)c(C(F)(F)F)n1` [Ia.64] are 0% and 0%.
On to `Cn1cc(C(=O)Nc2ccccc2-c2cc(Cl)cc(Cl)c2)c(C(F)F)n1` [Ia.43], for which the Infected leaf area with Puccinia recondita (125 g a.i./100 kg) is 0%; in the assay with Puccinia recondita (250 g a.i./100 kg) it was 0%; in the assay on Erysiphe graminis (125 g a.i./100 kg), 2%; in the assay on Erysiphe graminis (250 g a.i./100 kg), 0%.
As for `O=C(Nc1ccccc1-c1ccc(SC(F)(F)F)cc1)c1cccnc1Cl` [Id.58], the Infected leaf area in the assay with Puccinia recondita (125 g a.i./100 kg) and in the assay with Puccinia recondita (250 g a.i./100 kg) was 13% in each case.
`Cn1cc(C(=O)Nc2ccccc2-c2cccc(Cl)c2)c(CF)n1` [Ia.230]: the Infected leaf area in the assay on Puccinia recondita (125 g a.i./100 kg) and in the assay on Puccinia recondita (250 g a.i./100 kg) was 0% each time.
Regarding `Cc1cc(-c2ccccc2NC(=O)c2cn(C)nc2C(F)(F)F)c(F)cc1Cl` [Ia.84], the Infected leaf area turned out to be 0% with Puccinia recondita (125 g a.i./100 kg); 0% with Puccinia recondita (250 g a.i./100 kg); 3% with Septoria tritici (125 g a.i./100 kg); 3% with Septoria tritici (250 g a.i./100 kg); 0% in the assay with Erysiphe graminis (125 g a.i./100 kg); 0% in the assay on Erysiphe graminis (250 g a.i./100 kg).
For `Cn1cc(C(=O)Nc2ccccc2-c2ccc(Cl)cc2F)c(C(F)(F)F)n1` [Ia.57], the Infected leaf area in the assay on Puccinia recondita (125 g a.i./100 kg) and in the assay on Puccinia recondita (250 g a.i./100 kg) was 0% in each case.
For `Cn1cc(C(=O)Nc2ccccc2-c2ccc(F)c(Cl)c2)c(C(F)F)n1` [Ia.44], the Infected leaf area in the assay on Puccinia recondita (125 g a.i./100 kg) and in the assay with Puccinia recondita (250 g a.i./100 kg) was 0% throughout.
On to `Cn1cc(C(=O)Nc2ccccc2-c2ccccc2Cl)c(C(F)F)n1` [Ia.233], for which the Infected leaf area is reported as 2% with Puccinia recondita (125 g a.i./100 kg), 0% in the assay with Puccinia recondita (250 g a.i./100 kg), 7% in the assay with Septoria tritici (125 g a.i./100 kg) and 0% in the assay on Septoria tritici (250 g a.i./100 kg).
Turning to `Cn1cc(C(=O)Nc2ccccc2-c2ccc(SC(F)(F)F)cc2)c(C(F)F)n1` [Ia.313], the Infected leaf area in the assay with Puccinia recondita (125 g a.i./100 kg), with Puccinia recondita (250 g a.i./100 kg), in the assay on Septoria tritici (125 g a.i./100 kg), in the assay with Septoria tritici (250 g a.i./100 kg), with Erysiphe graminis (125 g a.i./100 kg) and in the assay with Erysiphe graminis (250 g a.i./100 kg) was 0% each time.
In the case of `Cn1cc(C(=O)Nc2ccccc2-c2ccc(F)c(F)c2)c(C(F)F)n1` [Ia.45], the Infected leaf area in the assay on Puccinia recondita (125 g a.i./100 kg) and in the assay on Puccinia recondita (250 g a.i./100 kg) was 0% each time.
As for `Cn1cc(C(=O)Nc2ccccc2-c2cccc(Cl)c2)c(C(F)F)n1` [Ia.231], the Infected leaf area with Puccinia recondita (125 g a.i./100 kg) and in the assay on Puccinia recondita (250 g a.i./100 kg) was 0% in each case.
